Assay results reported in ChEMBL document CHEMBL1909046, “DrugMatrix in vitro pharmacology data”.

What was measured:
[1] = biological target: Mitogen-activated protein kinase 1 (Homo sapiens, UniProt P28482); experiment: DRUGMATRIX: Protein Serine/Threonine Kinase, ERK2 enzyme inhibition (substrate: Myelin Basic Protein); set-up: species or system Escherichia coli; conditions: Not Active = under 50% inhibition at 10 µM
[2] = biological target: T1, Neuropeptide Y receptor type 1 (Homo sapiens, UniProt P25929); assay type: cell membranes, Membrane; conditions: sk-n-mc; further: in other assays of this panel Not Active means under 50% inhibition at 10 µM
T1 sequence (P25929 whole entry): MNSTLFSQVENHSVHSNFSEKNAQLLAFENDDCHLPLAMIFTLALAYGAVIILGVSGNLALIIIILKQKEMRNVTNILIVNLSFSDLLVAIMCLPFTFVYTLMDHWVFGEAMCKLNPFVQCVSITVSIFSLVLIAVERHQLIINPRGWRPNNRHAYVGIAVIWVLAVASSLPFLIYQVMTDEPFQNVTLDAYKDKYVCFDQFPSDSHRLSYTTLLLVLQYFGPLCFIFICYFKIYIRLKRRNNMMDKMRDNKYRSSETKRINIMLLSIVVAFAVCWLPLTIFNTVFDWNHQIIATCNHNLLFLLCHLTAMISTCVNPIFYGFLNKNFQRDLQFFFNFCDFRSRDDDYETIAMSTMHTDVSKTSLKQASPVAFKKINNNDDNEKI

[3] = biological target: Matrix metalloproteinase-9 (Homo sapiens, UniProt P14780); experiment: biochemical; assay type: cell-based;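 further: inhibition of isolated MMP-9 enzyme activity toward a synthetic peptide substrate, from the DrugMatrix protease screening panel; in other assays of this panel Not Active means under 50% inhibition at 10 µM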
[4] = DRUGMATRIX: Imidazoline I2, Central radioligand binding (ligand: [3H] Idazoxan); assay type: cell membranes, Rattus norvegicus, Wistar, Cerebral cortex, Membrane; conditions: Not Active = under 50% inhibition at 10 µM
[5] = biological target: Sodium-dependent noradrenaline transporter (Homo sapiens, UniProt P23975); experiment: DRUGMATRIX: Norepinephrine Transporter radioligand binding (ligand: [125I] RTI-55); assay type: cell membranes, MDCK, Membrane; conditions: mdck; Not Active = under 50% inhibition at 10 µM
B2 bradykinin receptor = biological target: T2, B2 bradykinin receptor (Homo sapiens, UniProt P30411); assay type: cell membranes, Membrane; conditions: chem-1; further: in other assays of this panel Not Active means under 50% inhibition at 10 µM
T2 sequence (P30411 whole entry): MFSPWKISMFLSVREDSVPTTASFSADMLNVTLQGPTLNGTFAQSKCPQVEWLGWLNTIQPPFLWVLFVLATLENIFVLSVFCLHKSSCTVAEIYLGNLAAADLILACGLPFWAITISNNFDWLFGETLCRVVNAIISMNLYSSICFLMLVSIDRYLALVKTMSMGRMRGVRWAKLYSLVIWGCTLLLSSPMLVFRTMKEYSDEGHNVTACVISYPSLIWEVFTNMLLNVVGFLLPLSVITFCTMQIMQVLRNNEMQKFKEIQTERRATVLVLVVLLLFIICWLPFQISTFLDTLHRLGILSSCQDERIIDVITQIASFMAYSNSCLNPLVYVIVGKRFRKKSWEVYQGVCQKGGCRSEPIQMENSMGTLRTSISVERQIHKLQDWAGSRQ

[6] = biological target: T3, Receptor-type tyrosine-protein phosphatase C (Homo sapiens, UniProt P08575); set-up: species or system Escherichia coli;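 further: inhibition of CD45 enzyme activity measured using DiFMUP as substrate; in other assays of this panel Not Active means under 50% inhibition at 10 µM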
T3 sequence (P08575 whole entry): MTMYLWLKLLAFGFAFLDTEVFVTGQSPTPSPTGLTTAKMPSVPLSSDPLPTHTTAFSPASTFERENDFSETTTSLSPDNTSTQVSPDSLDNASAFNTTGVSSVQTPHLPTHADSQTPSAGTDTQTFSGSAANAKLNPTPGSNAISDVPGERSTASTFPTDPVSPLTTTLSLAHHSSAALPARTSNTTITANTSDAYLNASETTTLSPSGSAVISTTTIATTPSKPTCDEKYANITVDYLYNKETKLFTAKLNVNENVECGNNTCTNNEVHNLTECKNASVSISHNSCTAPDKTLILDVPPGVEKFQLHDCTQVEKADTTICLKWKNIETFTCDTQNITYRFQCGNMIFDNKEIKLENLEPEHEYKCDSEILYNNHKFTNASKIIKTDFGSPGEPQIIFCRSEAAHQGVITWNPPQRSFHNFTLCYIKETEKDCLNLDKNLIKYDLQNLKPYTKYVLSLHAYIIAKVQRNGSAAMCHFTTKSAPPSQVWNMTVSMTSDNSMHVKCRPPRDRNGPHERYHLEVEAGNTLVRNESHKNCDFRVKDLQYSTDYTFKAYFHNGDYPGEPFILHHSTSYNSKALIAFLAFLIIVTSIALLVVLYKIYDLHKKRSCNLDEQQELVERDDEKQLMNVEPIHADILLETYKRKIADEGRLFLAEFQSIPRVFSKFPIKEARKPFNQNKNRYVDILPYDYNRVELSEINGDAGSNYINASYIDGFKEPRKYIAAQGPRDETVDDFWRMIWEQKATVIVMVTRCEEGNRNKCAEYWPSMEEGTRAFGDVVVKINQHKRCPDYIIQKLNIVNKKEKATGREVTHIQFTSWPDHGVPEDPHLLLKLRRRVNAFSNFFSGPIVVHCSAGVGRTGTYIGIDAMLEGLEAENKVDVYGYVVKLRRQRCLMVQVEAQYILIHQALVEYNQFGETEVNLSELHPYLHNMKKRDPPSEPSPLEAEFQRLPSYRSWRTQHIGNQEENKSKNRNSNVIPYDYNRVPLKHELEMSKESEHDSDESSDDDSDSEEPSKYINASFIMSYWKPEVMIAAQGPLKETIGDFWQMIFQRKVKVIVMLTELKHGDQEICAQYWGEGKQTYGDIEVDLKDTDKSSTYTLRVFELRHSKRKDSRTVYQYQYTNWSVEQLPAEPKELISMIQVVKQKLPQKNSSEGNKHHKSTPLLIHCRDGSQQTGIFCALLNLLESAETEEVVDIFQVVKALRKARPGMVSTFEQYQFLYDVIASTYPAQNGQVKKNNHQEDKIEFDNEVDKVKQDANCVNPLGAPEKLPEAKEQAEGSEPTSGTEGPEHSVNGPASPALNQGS

Chain of Matrix metalloproteinase-9 (P14780 whole entry): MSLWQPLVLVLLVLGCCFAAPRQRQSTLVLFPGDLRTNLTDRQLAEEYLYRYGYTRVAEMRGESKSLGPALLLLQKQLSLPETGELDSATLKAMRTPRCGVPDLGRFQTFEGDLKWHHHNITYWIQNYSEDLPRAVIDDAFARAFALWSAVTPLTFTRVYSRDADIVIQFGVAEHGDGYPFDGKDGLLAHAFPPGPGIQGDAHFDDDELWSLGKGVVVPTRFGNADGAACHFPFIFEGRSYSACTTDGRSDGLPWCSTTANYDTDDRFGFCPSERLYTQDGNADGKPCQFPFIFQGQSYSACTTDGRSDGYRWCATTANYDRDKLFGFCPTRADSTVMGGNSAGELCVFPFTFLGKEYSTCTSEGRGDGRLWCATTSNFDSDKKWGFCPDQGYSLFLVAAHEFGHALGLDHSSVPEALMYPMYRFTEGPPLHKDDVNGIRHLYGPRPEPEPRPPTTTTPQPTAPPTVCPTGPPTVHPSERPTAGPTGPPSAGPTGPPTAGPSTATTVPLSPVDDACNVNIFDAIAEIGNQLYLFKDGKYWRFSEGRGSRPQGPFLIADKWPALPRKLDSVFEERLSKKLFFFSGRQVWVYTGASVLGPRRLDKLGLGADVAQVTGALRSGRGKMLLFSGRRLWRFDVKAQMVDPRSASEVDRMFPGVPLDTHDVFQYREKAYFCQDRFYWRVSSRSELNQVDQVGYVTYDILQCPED
Chain of Mitogen-activated protein kinase 1 (P28482 whole entry): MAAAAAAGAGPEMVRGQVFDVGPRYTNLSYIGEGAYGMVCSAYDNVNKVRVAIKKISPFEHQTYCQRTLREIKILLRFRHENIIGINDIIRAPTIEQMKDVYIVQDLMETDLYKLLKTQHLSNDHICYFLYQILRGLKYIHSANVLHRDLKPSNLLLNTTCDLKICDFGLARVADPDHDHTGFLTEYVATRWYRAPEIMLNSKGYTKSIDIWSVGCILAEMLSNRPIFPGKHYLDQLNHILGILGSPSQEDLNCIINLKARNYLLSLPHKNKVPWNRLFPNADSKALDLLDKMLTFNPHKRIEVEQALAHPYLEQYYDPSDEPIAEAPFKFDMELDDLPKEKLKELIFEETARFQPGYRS
Chain of Sodium-dependent noradrenaline transporter (P23975 whole entry): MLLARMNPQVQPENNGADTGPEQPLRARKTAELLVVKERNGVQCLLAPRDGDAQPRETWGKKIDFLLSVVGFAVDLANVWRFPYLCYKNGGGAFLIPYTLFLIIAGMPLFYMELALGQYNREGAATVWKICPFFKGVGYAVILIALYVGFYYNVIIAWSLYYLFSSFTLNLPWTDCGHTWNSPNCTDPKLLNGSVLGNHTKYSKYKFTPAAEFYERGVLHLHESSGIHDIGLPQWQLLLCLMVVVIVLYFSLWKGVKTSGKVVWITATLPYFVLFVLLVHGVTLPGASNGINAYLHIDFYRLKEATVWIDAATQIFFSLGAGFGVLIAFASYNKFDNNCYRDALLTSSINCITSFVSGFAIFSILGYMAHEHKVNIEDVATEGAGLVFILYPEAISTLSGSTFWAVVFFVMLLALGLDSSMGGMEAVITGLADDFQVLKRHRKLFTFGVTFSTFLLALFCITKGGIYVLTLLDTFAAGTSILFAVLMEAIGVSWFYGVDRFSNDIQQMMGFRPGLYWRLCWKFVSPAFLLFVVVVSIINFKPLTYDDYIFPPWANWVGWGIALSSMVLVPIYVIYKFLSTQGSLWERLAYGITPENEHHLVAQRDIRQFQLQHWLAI

Compound	IC50 [1]	IC50 [2]	IC50 [3]	IC50 [4]	Ki [4]	IC50 [5]	IC50 (B2 bradykinin receptor)	IC50 [6]	IC50 ([4]; read-out: IC50)	Ki ([4]; read-out: Ki)
C[C@H]1O[C@@H](O[C@H]2[C@@H](O)C[C@H](O[C@H]3[C@@H](O)C[C@H](O[C@H]4CC[C@@]5(C)[C@H](CC[C@@H]6[C@@H]5C[C@@H](O)[C@]5(C)[C@@H](C7=CC(=O)OC7)CC[C@]65O)C4)O[C@@H]3C)O[C@@H]2C)C[C@H](O)[C@@H]1O [DIGOXIN]	Not Active	Not Active	Not Active	Not Active	Not Active	Not Active	Not Active	Not Active		
CC(C)[C@@]1(NC(=O)[C@@H]2C[C@@H]3c4cccc5[nH]cc(c45)C[C@H]3N(C)C2)O[C@@]2(O)[C@@H]3CCCN3C(=O)[C@H](Cc3ccccc3)N2C1=O.CS(=O)(=O)O [DIHYDROERGOCRISTINE MESYLATE]	Not Active	Not Active	Not Active			Not Active	Not Active	Not Active	5.43 nM	3.62 nM
CC(=O)O[C@@]12CO[C@@H]1C[C@H](O)[C@@]1(C)C(=O)[C@H](O)C3=C(C)[C@@H](OC(=O)[C@H](O)[C@@H](NC(=O)OC(C)(C)C)c4ccccc4)C[C@@](O)([C@@H](OC(=O)c4ccccc4)[C@H]21)C3(C)C.O.O.O [DOCETAXEL]	Not Active	Not Active	Not Active	Not Active	Not Active	Not Active	Not Active	Not Active		
COc1cc2nc(N3CCN(C(=O)C4COc5ccccc5O4)CC3)nc(N)c2cc1OC (configuration not stated) [DOXAZOSIN]	Not Active	Not Active	Not Active	Not Active	Not Active	Not Active	Not Active	Not Active		
C[C@H]1c2cccc(O)c2C(=O)C2=C(O)[C@]3(O)C(=O)C(C(N)=O)=C(O)[C@@H](N(C)C)[C@@H]3[C@@H](O)[C@@H]21.O [DOXYCYCLINE]	Not Active	Not Active	Not Active	Not Active	Not Active	Not Active	Not Active	Not Active		
O=C(CCCN1CC=C(n2c(=O)[nH]c3ccccc32)CC1)c1ccc(F)cc1 [DROPERIDOL]	Not Active	Not Active	Not Active			Not Active	Not Active	Not Active	2850 nM	1900 nM
CC(C)[C@H]1C(=O)N2CCC[C@H]2[C@]2(O)O[C@](NC(=O)[C@@H]3C=C4c5cccc6[nH]cc(c56)C[C@H]4N(C)C3)(C(C)C)C(=O)N12 [ERGOCORNINE]	Not Active	Not Active	Not Active			Not Active	Not Active	Not Active	4.49 nM	2.99 nM
C[C@]12CC[C@@H]3c4ccc(O)cc4CC[C@H]3[C@@H]1CCC2=O [ESTRONE]	Not Active	Not Active	Not Active	Not Active	Not Active	Not Active	Not Active	Not Active		
OC(Cn1cncn1)(Cn1cncn1)c1ccc(F)cc1F [FLUCONAZOLE]	Not Active	Not Active	Not Active	Not Active	Not Active	Not Active	Not Active	Not Active		
CC(C)C(=O)Nc1ccc([N+](=O)[O-])c(C(F)(F)F)c1 [FLUTAMIDE]	Not Active	Not Active	Not Active	Not Active	Not Active	Not Active	Not Active	Not Active		
N=C(N)NCCN1CCCCCCC1 [GUANETHIDINE]	Not Active	Not Active	Not Active	Not Active	Not Active	Not Active	Not Active	Not Active		
CC1(C)O[C@@H]2C[C@H]3[C@@H]4CCC5=CC(=O)CC[C@]5(C)[C@@]4(F)[C@@H](O)C[C@]3(C)[C@]2(C(=O)CCl)O1 [HALCINONIDE]	Not Active	Not Active	Not Active	Not Active	Not Active	Not Active	Not Active	Not Active		
O=c1[nH]c(=O)n([C@H]2C[C@H](O)[C@@H](CO)O2)cc1I [IDOXURIDINE]	Not Active	Not Active	Not Active	Not Active	Not Active	Not Active	Not Active	Not Active		
CC1Cc2ccccc2N1NC(=O)c1ccc(Cl)c(S(N)(=O)=O)c1 (configuration not stated) [INDAPAMIDE]	Not Active	Not Active	Not Active	Not Active	Not Active	Not Active	Not Active	Not Active		
Nc1nc(N)nc(-c2cc(Cl)ccc2Cl)n1.O=C(O)/C=C\C(=O)O [IRSOGLADINE MALEATE]	Not Active	Not Active	Not Active	Not Active	Not Active	Not Active	Not Active	Not Active		
CCC(C)n1ncn(-c2ccc(N3CCN(c4ccc(OCC5COC(Cn6cncn6)(c6ccc(Cl)cc6Cl)O5)cc4)CC3)cc2)c1=O (configuration not stated) [ITRACONAZOLE]	Not Active	Not Active	Not Active	Not Active	Not Active	Not Active	Not Active	Not Active		
CCCCN1CCCC[C@H]1C(=O)Nc1c(C)cccc1C [LEVOBUPIVACAINE]	Not Active	Not Active	Not Active	Not Active	Not Active	Not Active	Not Active	Not Active		
CCCCc1nc(Cl)c(CO)n1Cc1ccc(-c2ccccc2-c2nnn[nH]2)cc1 [LOSARTAN]	Not Active	Not Active	Not Active	Not Active	Not Active	Not Active	Not Active	Not Active		
Sc1ncnc2nc[nH]c12 [MERCAPTOPURINE ANHYDROUS]	Not Active	Not Active	Not Active	Not Active	Not Active	Not Active	Not Active	Not Active		
